Data reported in US5298502A, “Method and composition for photodynamic treatment and detection of tumors” (priority 1991, dated 1994).

Tests used:
HeLa cells [1] = assay: Proto IX in HeLa cells and culture medium, cell growth observations (Example 8); type: cell-based, human; details: 100 μM agent, compared to the control; for inhibition at 100 µM: Homo sapiens, HeLa, read-out: inhibiting effect on cell growth (rough observations)
Experimental: In a manner similar to Examples 1 and 2, cultures of HeLa cells were incubated in the presence of 100 μM of various treating agents, listed below. The agent was added in dilute solution in dimethylsulfoxide (DMSO),and the controls contained 0.2% DMSO v/v. After such incubation the culture medium was poured off, removing it from the cells, the cells were loosened from the culture flasks by addition of 0.25% W/v trypsin Which remained in contact With the cells for 20 minutes at 37° C., after which a fluorometric medium was added to the flask. The fluorometric medium was the same as that described in Example 7 except that its pH was 6.5; this medium also acted as an extractant. The resulting extract was analyzed for proto IX content. The separated culture medium was also analyzed fluorometrically for Proto IX content. The pairs of percentages given, next to each treating agent, indicate the amount of Proto IX produced in the presence of that treating agent relative to the amount produced by the control in the same experiment; the first number of each pair relates to the concentration of Proto IX in the culture medium and the second number relates to the concentration in the cells. [drawing 12]

HeLa cells [2] = assay: Tetrapyrrole accumulation in treated HeLa cells (Example 1); type: cell-based, human; details: 3 days in the dark
Experimental: HeLa cells (a human tumor cell line commonly employed for tumor research and obtained from the American Type Culture Collection), in logarithmic growth phase (having been cultured at 37° C. for five days in one-liter Falcon tissue culture flasks), were washed in phosphate buffered saline (PBS). A 0.25% solution of trypsin in PBS (2 mL) was added, and, after several minutes, the cells were gently removed from the flask and placed into 110 mL of a 25 mM solution of Hepes in Minimum Essential Medium (MEM) supplemented with 10% v/v inactivated calf serum, 1.1 mL of a 200 mM solution of glutamine in 0.85% saline solution, and 11,000 units of penicillin/11,000 mcg streptomycin.
Then, 5.0 mL aliquots of the resulting resuspended cell culture were each placed into a 50 mL Falcon tissue culture flask and (except for the control) mixed with the treating agent. The aliquots were then incubated in the dark at 37° C. for three days. The cells were then removed and extracted under green light in the following manner:
Cells were removed from the bottom of the flask with the addition of 0.8 mL of a 0.25% solution of trypsin in PBS. After 1 hour of incubation in the dark, cells and medium were removed from the flasks, placed into round bottom centrifuge tubes, and then subjected to two rounds of freeze-thaw conditions to disrupt the cells and allow for extraction.
Ten mL of basic acetone (90% acetone:10% of 0.1 N NH4 OH) was then added to each tube, and the tubes were centrifuged to remove protein and cell debris. Five mL of water was added to the supernatant, followed by 0.5 mL of a saturated aqueous solution of NaCl. The pH was then adjusted to 6.8 by the dropwise addition of 2 M KH2 PO4. The aqueous acetone extract was then loaded onto a C8 Baker Prep column. The columns were dried and then washed with 2 mL of water. The tetrapyrroles were eluted with 2×1.5 mL volumes of 90/10 CH3 OH/H2 O. Extracts were then quantified on a spectrofluorometer.
Agent A was supplied as a filter-sterilized 250 mM solution in water, pH 6.5. Agents B, C, D, and E were supplied as 50 mM solutions in acetone. Acetone was also added to the control to provide a concentration of 0.2% v/v therein. The amounts of the agents added to the cell cultures were such as to give the concentrations specified in the Table 1 below. The amounts of the tetrapyrrole protoporphyrin IX ("Proto IX") produced are shown in that Table.

[3] = test system: DBA/2 Ha mice with SMT-F subcutaneous tumors; assay: Proto IX content of tissues of tumor-bearing mice fed the agent (Example 6); type: in vivo; details: for concentration of Proto IX in tissue, Adrenal / concentration of Proto IX in tissue, Intestine / concentration of Proto IX in tissue, Kidneys / concentration of Proto IX in tissue, Liver / concentration of Proto IX in tissue, Tumor / Proto IX Mean Cps per gram, Intestine: 2000 ppm in feed; for Proto IX Mean Cps per gram, Adrenal / Proto IX Mean Cps per gram, Kidneys / Proto IX Mean Cps per gram, Liver / Proto IX Mean Cps per gram, Tumor / Weight of Tumor as excised: 2000 ppm in feed Days 2-10, sacrificed Day 10 (6j Day 7); for Proto IX Mean Cps per gram, Intestine: samples diluted with 3 parts basic acetone to one part sample
Experimental: In this Example the enzyme-inhibiting agents were added to the feed of tumor-bearing mice; for some of the mice, used as a control, no agent was added to the feed. The mice were then sacrificed and their kidneys, intestines, adrenal glands, liver and tumor were removed and analyzed for their content of Proto IX. The following enzyme-inhibiting agents were employed: [drawing 10]
More particularly, the mice were DBA/2 Ha mice which had been injected with SMT-F subcutaneous tumors on Day 0 in the right shoulder. The mice, individually housed, received untreated Purina Rodent Chow 5001 Mash on Day 1; thereafter on Days 2 through 10 the mice received the same Mash treated with 2000 ppm of the inhibiting agent being tested (or, for the controls, the same untreated Mash). The treatment of the Mash was effected by blending it with a small amount of an acetone solution of the agent to be tested. The mice were then sacrificed on Day 10, except for the mouse treated with the agent designated as 6j; the latter was sacrificed on Day 7. The tissues were refrigerated at 4° C. overnight, then blotted dry, and the fresh weight of each tissue sample was recorded. The tissues were then homogenized in 5 mL, or lo mL in the cases of intestines and liver, of acetone-0.1 N NH4 OH (9:I, v/v). The homogenates were then centrifuged at 1500 g and the supernatants were analyzed on a SPEX FAII2 spectrofluorometer; excitation 400 nm, emission 630 nm wavelengths, the optima for Proto IX. Proto IX accumulation was determined as CPS (fluorescent counts per second emitted) per gram of tissue. The results are tabulated below (results are averages for two mice for each treatment, except for treatments with agents 6f, 6h, 6i and 6j in each of which only one mouse was treated): […]

HeLa cells [4] = assay: Growth inhibition and Proto IX accumulation in HeLa cells (Example 2); type: cell-based, human; details: 100 μM agent
Experimental: HeLa cells, in logarithmic growth phase having been cultured for 6 days in six one-liter Falcon tissue culture flasks at 37° C.), were washed in phosphate buffered saline (PBS). A 0.25% solution of trypsin in PBS was added, and, after several minutes, the cells were gently removed and placed into 110 mL of a 25 mM solution of Hepes in Minimum Essential Medium (MEM), supplemented with 10% v/v inactivated calf serum, 1.1 mL of a 200 mM solution of glutamine in 0.85% saline solution, and 11,000 units of penicillin/11,000 mcg streptomycin.
Aliquots (5.0 mL each) of the resuspended cell culture were placed into 50 mL Falcon tissue culture flasks, with or without herbicide, and incubated in the dark at 37° C. for 4 days, the herbicide being added in dilute acetone solution as in Example 1. Acetone was also added to the controls to provide a concentration of acetone of 0.2% v/v therein. The amount of herbicide was such as to provide the concentrations specified in Table 2 below.
Extraction: The media from each of the flasks were placed in glass round bottom tubes, while the cells adhering to the bottom of the flasks were loosened by the addition of 0.5 mL of a 0.25% solution of trypsin in PBS, and after several minutes at 37° C., then washed from the flasks and recombined with their media. Aliquots of 100 μL were then removed from each cell suspension to determine cell density. The remaining 5.4 mL of cell suspension was then sonified for 30 minutes to disrupt the cells.
Ten mL of basic acetone (90% acetone:10% 0.1 N NH4 OH) was then added to each tube, and the tubes were centrifuged to remove protein and cell debris. Five mL of water was added to the supernatant, followed by 0.5 mL of a saturated aqueous solution of NaCl. The pH was then adjusted to 6.8 by the dropwise addition of 2 M KH2 PO4. The aqueous acetone extract was then loaded onto a C8 Baker Prep column. The columns were dried and then washed with 2 mL of water. The tetrapyrroles were eluted with 3 mL of 90/10 CH3 OH/H2 O. As in Example 1, all these extraction procedures were carried out substantially entirely under non-protoporphrin IX-exciting light (e.g. green light) or in the dark (e.g. in opaque covered containers). The fluorescence of the extracts was then determined on a SPEX spectrofluorometer. Protoporphyrin IX ("Proto IX") accumulation was quantified utilizing predetermined extinction coefficients.

COC(=O)c1cc(Oc2ccc(Cl)cc2Cl)ccc1[N+](=O)[O-] [Compound 8ap]
inhibition at 100 µM (HeLa cells [1]): 50%

C#CCN1C(=O)COc2cc(F)c(-n3ncc(=O)n(C)c3=O)cc21 [Agent D]
Amount of Proto IX (HeLa cells [2]; 100 μM agent): 1.1 pmol
Fluorescence Emission cps 400/630 (HeLa cells [2]; 100 μM agent): 10551 cps

O=[N+]([O-])c1ccc(Oc2ccc(Cl)cc2Cl)cc1 [Compound 8ar]
inhibition at 100 µM (HeLa cells [1]): 25%

Cc1nc2ccccc2n1Cc1c(F)c(F)c(F)c(F)c1F [Compound 8ad]
effect on cell growth (rough observations) (HeLa cells [1]): lethal

CC1(C)Cc2c(Br)ccc(OC(=O)N3CCCC3)c2O1 [Compound 8ae]
effect on cell growth (rough observations) (HeLa cells [1]): lethal

COc1ccc(OC)c(CNC(=O)c2ccc(Cl)cc2)c1 [Compound 8aj]
inhibition at 100 µM (HeLa cells [1]): 25%

C#CCOc1cc(N2N=CCN(C)C2=O)c(F)cc1Cl [Compound 8u]
inhibition at 100 µM (HeLa cells [1]): 60%

CCS(=O)(=O)Nc1cc(-n2nnn(-c3ccc([N+](=O)[O-])cc3)c2=O)c(F)cc1Cl [Compound 8af]
effect on cell growth (rough observations) (HeLa cells [1]): lethal

O=C(Nc1ccc(Cl)cc1)C(F)(F)Sc1ccccc1 [Compound 8ak]
inhibition at 100 µM (HeLa cells [1]): 50%

CCOC(=O)C(C)Oc1ccc(Cn2c(C)nn(-c3cc(OC)c(Cl)cc3F)c2=O)cc1 (stereo not drawn) [Compound 8ag]
inhibition at 100 µM (HeLa cells [1]): 25%

CCOC(=O)C(C)OC(=O)c1cc(Oc2ccc(C(F)(F)F)cc2Cl)ccc1[N+](=O)[O-] (stereo not drawn) [Compound 8an]
inhibition at 100 µM (HeLa cells [1]): 50%

C#CCOc1cc(N2C(=O)C3CCCCC3C2=O)c(F)cc1Cl (stereo not drawn) [Compound 8ac]
inhibition at 100 µM (HeLa cells [1]): 50%

CC(C)Oc1cc(-n2c(=O)n3n(c2=S)CCCC3)c(F)cc1Cl [Agent 6e]
concentration of Proto IX in tissue, Adrenal [3]: 12 ug of Proto IX per gram of tis
concentration of Proto IX in tissue, Intestine [3]: 19 ug of Proto IX per gram of tis
concentration of Proto IX in tissue, Kidneys [3]: 8 ug of Proto IX per gram of tis
concentration of Proto IX in tissue, Liver [3]: 8 ug of Proto IX per gram of tis
concentration of Proto IX in tissue, Tumor [3]: 8 ug of Proto IX per gram of tis
Proto IX Mean Cps per gram, Adrenal [3]: 1331 Cps per gram × 10^3
Proto IX Mean Cps per gram, Kidneys [3]: 915 Cps per gram × 10^3
Proto IX Mean Cps per gram, Liver [3]: 876 Cps per gram × 10^3
Proto IX Mean Cps per gram, Tumor [3]: 837 Cps per gram × 10^3
Weight of Tumor as excised [3]: 165 mg
Proto IX Mean Cps per gram, Intestine [3]: 2069 Cps per gram × 10^3

CC(C)Oc1cc(-n2nc(C(C)(C)C)oc2=O)c(Cl)cc1Cl [Agent F]
Amount of Proto IX (HeLa cells [4]; average amount per 10^6 cells): 2.71 pmol
inhibition at 100 µM (HeLa cells [4]; Homo sapiens, HeLa, 96 h, 4 days in the dark): 106%

CC(C)Oc1cc(-n2oc(=O)n(C)c2=O)c(F)cc1Cl [Compound 8ai]
inhibition at 100 µM (HeLa cells [1]): 50%

C#CCOc1cc(N=C2SCC(=O)N2C)c(F)cc1Cl [Compound 8ah]
effect on cell growth (rough observations) (HeLa cells [1]): lethal

CC(C)Oc1cc(-n2nc(C(C)(C)C)oc2=O)c(Cl)cc1Cl [Agent 6d]
concentration of Proto IX in tissue, Adrenal [3]: 4 ug of Proto IX per gram of tis
concentration of Proto IX in tissue, Intestine [3]: 51 ug of Proto IX per gram of tis
concentration of Proto IX in tissue, Kidneys [3]: 117 ug of Proto IX per gram of tis
concentration of Proto IX in tissue, Liver [3]: 14 ug of Proto IX per gram of tis
concentration of Proto IX in tissue, Tumor [3]: 18 ug of Proto IX per gram of tis
Proto IX Mean Cps per gram, Adrenal [3]: 443 Cps per gram × 10^3
Proto IX Mean Cps per gram, Kidneys [3]: 12865 Cps per gram × 10^3
Proto IX Mean Cps per gram, Liver [3]: 1581 Cps per gram × 10^3
Proto IX Mean Cps per gram, Tumor [3]: 2006 Cps per gram × 10^3
Weight of Tumor as excised [3]: 294 mg
Proto IX Mean Cps per gram, Intestine [3]: 5565 Cps per gram × 10^3

NCC(=O)CCC(=O)O [Agent A, 5-amino levulinic acid, reference compound]
Amount of Proto IX (HeLa cells [2]; 5000 μM agent): 4.2 pmol
Fluorescence Emission cps 400/630 (HeLa cells [2]; 5000 μM agent): 41842 cps

C#CCOc1cc(N2C(=O)C(C)=C(C)C2=O)c(F)cc1Cl [Compound 8ab]
effect on cell growth (rough observations) (HeLa cells [1]): lethal

C#CCOc1cc(-n2ncc(=O)n(C)c2=O)c(F)cc1Cl [Compound 8t]
inhibition at 100 µM (HeLa cells [1]): 50%

Cn1c(=O)cnn(-c2ccc(Cl)cc2F)c1=O [Agent E]
Amount of Proto IX (HeLa cells [2]; 100 μM agent): 0.9 pmol
Fluorescence Emission cps 400/630 (HeLa cells [2]; 100 μM agent): 8967 cps
